US20240109924A1, “IP4-4,6 SUBSTITUTED DERIVATIVE COMPOUNDS” (SANIFIT THERAPEUTICS, S.A., priority 2021, published 2024)
Where a name gives a salt, the structure may show the parent alone.

Test: In vitro inhibition of calcium phosphate crystallization in human plasma (spectrophotometric assay)
Type: biochemical
Settings: 0-100 μM, 1.5 mM phosphate, 12.5 mM calcium, pH 7.4, absorbance 550 nm, slope 6-24 min, read-out: Relative Potency
Method: The in vitro efficacy of the IP4-4,6 substituted derivatives (e.g., Compounds 1 to 53) of the invention on the inhibition of calcium phosphate crystallization in human plasma samples was evaluated according to a spectrophotometric assay previously described in the art (Ferrer M, et al., Sci Rep 2017; 7:6858, doi:10.1038/s41598-017-07203-x).
A 96-well plate was employed. Plasma was spiked (1 volume of the IP4-4,6 substituted derivatives of the invention per 19 volumes of plasma) with increasing concentrations of the derivatives in the range of 0-100 μM. Plasma was then centrifuged at 10,000 g at rt and subsequently mixed with a mixture of 5 mM hydrogen phosphate and 41.67 mM calcium to attain final concentrations of 1.5 mM phosphate and 12.5 mM calcium, respectively. All reagent solutions were filtered, and pH adjusted to 7.4.
Crystallization of calcium phosphate was monitored spectrophotometrically for 30 min at rt by measuring the increments in absorbance at 550 nm using the Biotek Powerwave XS Microplate spectrophotometer (BioTek Instruments, Inc., Winooski, VT, US). The plate was incubated at rt in an orbital shaker and absorbance measured every 3 min.
Plasma crystallization was assessed based on slope measurement in the linear range between 6 and 24 min from plots of increase in absorbance versus logarithm of time. The efficacy of different myo-inositol phosphates derivatives in preventing in vitro formation of calcium phosphate crystals was assessed in human plasma samples using the slopes obtained between 6- and 24-min. Inhibition of crystallization was measured by comparing the slopes of the control sample (blank plasma) with those of samples containing the inhibitor as shown below: […]

Structure (SMILES)	EC50 [µM]
CCCCCCCCCCOC1C(OP(=O)(O)O)C(OCCCCCCCCCC)C(OP(=O)(O)O)C(OP(=O)(O)O)C1OP(=O)(O)O (stereo not shown) [Compound 2, 4,6-O-didecyl-myo-inositol-1,2,3,5-tetrakis(phosphate) octasodium salt]	> 10
CCCCCCCCCCCCCCO[C@@H]1[C@@H](OP(=O)(O)O)[C@H](OCCCCCCCCCCCCCC)[C@@H](OP(=O)(O)O)[C@@H](OP(=O)(O)O)[C@H]1OP(=O)(O)O [Compound 3, 4,6-O-di(tetradecyl)-myo-inositol-1,2,3,5-tetrakis(phosphate) octasodium salt]	≤ 5
O=P(O)(O)OC1C(OCCCCCCCCCCO)C(OP(=O)(O)O)C(OP(=O)(O)O)C(OP(=O)(O)O)C1OCCCCCCCCCCO (stereo not shown) [Compound 7, 4,6-O-bis(10-hydroxydecyl)-myo-inositol-1,2,3,5-tetrakis(phosphate) octasodium salt]	> 10
COCCCCCCCOC1C(OP(=O)(O)O)C(OCCCCCCCOC)C(OP(=O)(O)O)C(OP(=O)(O)O)C1OP(=O)(O)O (stereo not shown) [Compound 11, 4,6-O-bis(7-methoxyheptyl)-myo-inositol-1,2,3,5-tetrakis(phosphate) octasodium salt]	> 10
COCCCCCCCCCOC1C(OP(=O)(O)O)C(OCCCCCCCCCOC)C(OP(=O)(O)O)C(OP(=O)(O)O)C1OP(=O)(O)O (stereo not shown) [Compound 12, 4,6-O-bis(9-methoxynonyl)-myo-inositol-1,2,3,5-tetrakis(phosphate) octasodium salt]	> 10
NCCCCCCCCCCO[C@@H]1[C@@H](OP(=O)(O)O)[C@H](OCCCCCCCCCCN)[C@@H](OP(=O)(O)O)[C@@H](OP(=O)(O)O)[C@H]1OP(=O)(O)O [Compound 15, 4,6-O-bis(10-aminodecyl)-myo-inositol-1,2,3,5-tetrakis(phosphate) octasodium salt]	> 10
O=P(O)(O)OC1C(OCCCCCn2cncn2)C(OP(=O)(O)O)C(OP(=O)(O)O)C(OP(=O)(O)O)C1OCCCCCn1cncn1 (stereo not shown) [Compound 17, 4,6-O-bis(5-(1H-1,2,4-triazol-1-yl)pentyl)-myo-inositol-1,2,3,5-tetrakis(phosphate) octasodium salt]	> 10
O=C(O)CCCCCCCCCCOC1C(OP(=O)(O)O)C(OCCCCCCCCCCC(=O)O)C(OP(=O)(O)O)C(OP(=O)(O)O)C1OP(=O)(O)O (stereo not shown) [Compound 19, 4,6-O-bis(10-carboxydecyl)-myo-inositol-1,2,3,5-tetrakis(phosphate) decasodium salt]	> 10
COCCCCCCCCC#CCCCCCCCCCOC1C(OP(=O)(O)O)C(OCCCCCCCCCC#CCCCCCCCCOC)C(OP(=O)(O)O)C(OP(=O)(O)O)C1OP(=O)(O)O (stereo not shown) [Compound 20, 4,6-O-bis(19-methoxynonadec-10-yn-1-yl)-myo-inositol-1,2,3,5-tetrakis(phosphate) octasodium salt]	≤ 5
CC(C)CCCOC1C(OP(=O)(O)O)C(OCCCC(C)C)C(OP(=O)(O)O)C(OP(=O)(O)O)C1OP(=O)(O)O (stereo not shown) [Compound 21, 4,6-O-bis(4-methylpentyl)-myo-inositol-1,2,3,5-tetrakis(phosphate) octasodium salt]	> 10
O=P(O)(O)OC1C(OCCCCCC(F)(F)F)C(OP(=O)(O)O)C(OP(=O)(O)O)C(OP(=O)(O)O)C1OCCCCCC(F)(F)F (stereo not shown) [Compound 23, 4,6-O-bis(6,6,6-trifluorohexyl)-myo-inositol-1,2,3,5-tetrakis(phosphate) octasodium salt]	> 10
COC(=O)NCCCOC1C(OP(=O)(O)O)C(OCCCNC(=O)OC)C(OP(=O)(O)O)C(OP(=O)(O)O)C1OP(=O)(O)O (stereo not shown) [Compound 24, 4,6-O-bis(3-((methoxycarbonyl)amino)propyl)-myo-inositol-1,2,3,5-tetrakis(phosphate) octasodium salt]	> 10
COC(=O)NCCCCCOC1C(OP(=O)(O)O)C(OCCCCCNC(=O)OC)C(OP(=O)(O)O)C(OP(=O)(O)O)C1OP(=O)(O)O (stereo not shown) [Compound 25, 4,6-O-bis(5-((methoxycarbonyl)amino)pentyl)-myo-inositol-1,2,3,5-tetrakis(phosphate) octasodium salt]	≤ 5
CC(=O)NCCCCCO[C@@H]1[C@@H](OP(=O)(O)O)[C@H](OCCCCCNC(C)=O)[C@@H](OP(=O)(O)O)[C@@H](OP(=O)(O)O)[C@H]1OP(=O)(O)O [Compound 27, 4,6-O-bis(5-acetamidopentyl)-myo-inositol-1,2,3,5-tetrakis(phosphate) octasodium salt]	≤ 5
CC(=O)N1CCN(CCOC2C(OP(=O)(O)O)C(OCCN3CCN(C(C)=O)CC3)C(OP(=O)(O)O)C(OP(=O)(O)O)C2OP(=O)(O)O)CC1 (stereo not shown) [Compound 34, 4,6-O-bis(2-(4-acetylpiperazin-1-yl)ethyl)-myo-inositol-1,2,3,5-tetrakis(phosphate) octasodium salt]	5 to 10

The remaining lines, values ahead:

EC50 [µM]	Structure (SMILES)
≤ 5	CCCO[C@@H]1[C@@H](OP(=O)(O)O)[C@H](OCCC)[C@@H](OP(=O)(O)O)[C@@H](OP(=O)(O)O)[C@H]1OP(=O)(O)O [Compound 4, 4,6-O-dipropyl-myo-inositol-1,2,3,5-tetrakis(phosphate) octasodium salt]
≤ 5	CCCCCCCOC1C(OP(=O)(O)O)C(OCCCCCCC)C(OP(=O)(O)O)C(OP(=O)(O)O)C1OP(=O)(O)O (stereo not shown) [Compound 5, 4,6-O-diheptyl-myo-inositol-1,2,3,5-tetrakis(phosphate) octasodium salt]
≤ 5	COCCCOC1C(OP(=O)(O)O)C(OCCCOC)C(OP(=O)(O)O)C(OP(=O)(O)O)C1OP(=O)(O)O (stereo not shown) [Compound 10, 4,6-O-bis(3-methoxypropyl)-myo-inositol-1,2,3,5-tetrakis(phosphate) octasodium salt]
5 to 10	NCCCOC1C(OP(=O)(O)O)C(OCCCN)C(OP(=O)(O)O)C(OP(=O)(O)O)C1OP(=O)(O)O (stereo not shown) [Compound 13, 4,6-O-bis(3-aminopropyl)-myo-inositol-1,2,3,5-tetrakis(phosphate) octasodium salt]
≤ 5	O=P(O)(O)OC1C(OCCCCCn2cccn2)C(OP(=O)(O)O)C(OP(=O)(O)O)C(OP(=O)(O)O)C1OCCCCCn1cccn1 (stereo not shown) [Compound 16, 4,6-O-bis(5-(1H-pyrazol-1-yl)pentyl)-myo-inositol-1,2,3,5-tetrakis(phosphate) octasodium salt]
≤ 5	O=P(O)(O)O[C@@H]1[C@@H](OCCCC(F)(F)F)[C@H](OP(=O)(O)O)[C@H](OP(=O)(O)O)[C@H](OP(=O)(O)O)[C@H]1OCCCC(F)(F)F [Compound 22, 4,6-O-bis(4,4,4-trifluorobutyl)-myo-inositol-1,2,3,5-tetrakis(phosphate) octasodium salt]
≤ 5	NC(=O)CCCOC1C(OP(=O)(O)O)C(OCCCC(N)=O)C(OP(=O)(O)O)C(OP(=O)(O)O)C1OP(=O)(O)O (stereo not shown) [Compound 26, 4,6-O-bis(4-amino-4-oxobutyl)-myo-inositol-1,2,3,5-tetrakis(phosphate) octasodium salt]
≤ 5	O=P(O)(O)OC1C(OCCC2CC2)C(OP(=O)(O)O)C(OP(=O)(O)O)C(OP(=O)(O)O)C1OCCC1CC1 (stereo not shown) [Compound 28, 4,6-O-bis(2-cyclopropylethyl)-myo-inositol-1,2,3,5-tetrakis(phosphate) octasodium salt]
≤ 5	O=P(O)(O)O[C@@H]1[C@@H](OCCC2CCCC2)[C@H](OP(=O)(O)O)[C@H](OP(=O)(O)O)[C@H](OP(=O)(O)O)[C@H]1OCCC1CCCC1 [Compound 29, 4,6-O-bis(2-cyclopentylethyl)-myo-inositol-1,2,3,5-tetrakis(phosphate) octasodium salt]
≤ 5	CCCNC(=O)NCCCCCOC1C(OP(=O)(O)O)C(OCCCCCNC(=O)NCCC)C(OP(=O)(O)O)C(OP(=O)(O)O)C1OP(=O)(O)O (stereo not shown) [Compound 30, 4,6-O-bis(5-(3-propylureido)pentyl)-myo-inositol-1,2,3,5-tetrakis(phosphate) octasodium salt]
≤ 5	COCCCn1cc(CO[C@@H]2[C@@H](OP(=O)(O)O)[C@H](OCc3cn(CCCOC)nn3)[C@@H](OP(=O)(O)O)[C@@H](OP(=O)(O)O)[C@H]2OP(=O)(O)O)nn1 [Compound 32, 4,6-O-bis((1-(3-methoxypropyl)-1H-1,2,3-triazol-4-yl)methyl)-myo-inositol-1,2,3,5-tetrakis(phosphate) octasodium salt]
5 to 10	COCCCCCCn1cc(COC2C(OP(=O)(O)O)C(OCc3cn(CCCCCCOC)nn3)C(OP(=O)(O)O)C(OP(=O)(O)O)C2OP(=O)(O)O)nn1 (stereo not shown) [Compound 33, 4,6-O-bis((1-(6-methoxyhexyl)-1H-1,2,3-triazol-4-yl)methyl)-myo-inositol-1,2,3,5-tetrakis(phosphate) octasodium salt]
≤ 5	O=C(O)CCc1cn(CCCOC2C(OP(=O)(O)O)C(OCCCn3cc(CCC(=O)O)nn3)C(OP(=O)(O)O)C(OP(=O)(O)O)C2OP(=O)(O)O)nn1 (stereo not shown) [Compound 35, 4,6-O-bis(3-(4-(2-carboxyethyl)-1H-1,2,3-triazol-1-yl)propyl)-myo-inositol-1,2,3,5-tetrakis(phosphate) decasodium salt]
